From patent US20240238424A1, “HETEROBIFUNCTIONAL COMPOUNDS AND METHODS OF TREATING DISEASE” (Halda Therapeutics OpCo, Inc., priority 2021, published 2024)

The molecules below were run against T1, GSPT1 (Homo sapiens, UniProt P15170+Q96SW2) (assay: GSPT1 HiBit degradation assay). Conditions: Table 3A; HEK293 LgBiT cells expressing GSPT1_HiBiT, luminescence after 6 hours.
T1 construct: host or cells: HEK293 LgBiT cell line
Format: cell-based
Excerpt: Promega developed a HEK293 cell line that constitutively expresses LgBiT protein and GSPT1_HiBiT fusion protein. When both proteins are present, the HiBiT portion of the fusion protein combines with LgBiT protein to form a functional luciferase enzyme. Endurazine, a cell permeable small molecule, is converted by cellular esterases into furimazine, which the luciferase enzyme uses as a substrate to generate luminescence. When GSPT1 is degraded, the HiBit is also degraded. This prevents formation of fully functional luciferase, leading to a loss in luminescence. GSPT1 degradation therefore correlates with a decrease in luminescence and can be measured continuously over time. The concentration of compound at which 50% GSPT1 degradation occurs (DC50) was calculated using this system.
• HEK293 LgBiT Cell line (Promega Custom) • Endurazine Substrate (Promega Cat. #N2570) • DMEM (Gibco Cat. #11995) • Penicillin/Streptomycin (Gibco Cat. #15140-122) • Heat Inactivated Fetal Bovine Serum (Gibco Cat. #A38400-01) • Hygromycin B (Gibco Cat. #10-687-010) • 384 Well TC Treated White Microplate (Perkin Elmer Cat. #6007680)
HEK293 LgBiT cells were cultured in DMEM Media supplemented with 10% FBS, 5% Pen/Strep, 200 μg/ml hygromycin and stored in an incubator set at 37° C. and 5% CO2. 18-24 hours prior to compound treatment, HEK293 LgBiT cells were seeded at 1000 cells/well in a 384-well microplate in 25 μl complete media. The plate was spun at 300 g for 30 seconds and stored in the incubator overnight. The next day, compounds were titrated in DMSO and added to media supplemented with endurazine substrate. A 25 ul aliquot of 2× compound/endurazine in media were then added to the 384-well microplate with seeded cells. (Endurazine was used at a final concentration of 0.5×). The plate was spun at 300 g for 30 seconds and stored in the incubator. After 6 hours the plate was read on a Perkin Elmer MultiMode Plate Reader Envision 2105 to measure luminescence signal.

T1 sequence (P15170 whole entry): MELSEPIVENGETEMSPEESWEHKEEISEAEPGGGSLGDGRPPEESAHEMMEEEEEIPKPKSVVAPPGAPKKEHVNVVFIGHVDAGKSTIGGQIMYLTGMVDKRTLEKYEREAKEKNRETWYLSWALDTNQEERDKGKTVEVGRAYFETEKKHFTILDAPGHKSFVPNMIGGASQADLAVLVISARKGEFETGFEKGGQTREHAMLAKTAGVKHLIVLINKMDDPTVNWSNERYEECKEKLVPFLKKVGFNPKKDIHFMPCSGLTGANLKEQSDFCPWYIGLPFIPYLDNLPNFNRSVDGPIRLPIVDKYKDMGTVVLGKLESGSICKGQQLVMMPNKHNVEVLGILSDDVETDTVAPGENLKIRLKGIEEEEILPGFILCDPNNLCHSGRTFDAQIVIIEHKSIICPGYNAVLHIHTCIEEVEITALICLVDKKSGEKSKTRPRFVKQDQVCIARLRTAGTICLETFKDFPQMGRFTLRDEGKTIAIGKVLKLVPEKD
T1 sequence (Q96SW2 whole entry): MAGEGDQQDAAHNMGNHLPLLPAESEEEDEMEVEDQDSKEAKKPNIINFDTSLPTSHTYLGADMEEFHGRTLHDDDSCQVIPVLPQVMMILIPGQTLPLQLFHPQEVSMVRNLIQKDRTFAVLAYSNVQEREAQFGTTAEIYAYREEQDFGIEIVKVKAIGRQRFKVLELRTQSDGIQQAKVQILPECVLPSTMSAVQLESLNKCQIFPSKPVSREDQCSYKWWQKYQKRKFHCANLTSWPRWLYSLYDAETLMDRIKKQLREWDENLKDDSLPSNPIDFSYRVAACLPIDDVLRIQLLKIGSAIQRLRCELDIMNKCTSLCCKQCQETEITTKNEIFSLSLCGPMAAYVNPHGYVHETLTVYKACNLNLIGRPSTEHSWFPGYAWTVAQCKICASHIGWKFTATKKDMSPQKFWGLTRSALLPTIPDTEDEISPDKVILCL
T1 sequence (Q16531 whole entry partner): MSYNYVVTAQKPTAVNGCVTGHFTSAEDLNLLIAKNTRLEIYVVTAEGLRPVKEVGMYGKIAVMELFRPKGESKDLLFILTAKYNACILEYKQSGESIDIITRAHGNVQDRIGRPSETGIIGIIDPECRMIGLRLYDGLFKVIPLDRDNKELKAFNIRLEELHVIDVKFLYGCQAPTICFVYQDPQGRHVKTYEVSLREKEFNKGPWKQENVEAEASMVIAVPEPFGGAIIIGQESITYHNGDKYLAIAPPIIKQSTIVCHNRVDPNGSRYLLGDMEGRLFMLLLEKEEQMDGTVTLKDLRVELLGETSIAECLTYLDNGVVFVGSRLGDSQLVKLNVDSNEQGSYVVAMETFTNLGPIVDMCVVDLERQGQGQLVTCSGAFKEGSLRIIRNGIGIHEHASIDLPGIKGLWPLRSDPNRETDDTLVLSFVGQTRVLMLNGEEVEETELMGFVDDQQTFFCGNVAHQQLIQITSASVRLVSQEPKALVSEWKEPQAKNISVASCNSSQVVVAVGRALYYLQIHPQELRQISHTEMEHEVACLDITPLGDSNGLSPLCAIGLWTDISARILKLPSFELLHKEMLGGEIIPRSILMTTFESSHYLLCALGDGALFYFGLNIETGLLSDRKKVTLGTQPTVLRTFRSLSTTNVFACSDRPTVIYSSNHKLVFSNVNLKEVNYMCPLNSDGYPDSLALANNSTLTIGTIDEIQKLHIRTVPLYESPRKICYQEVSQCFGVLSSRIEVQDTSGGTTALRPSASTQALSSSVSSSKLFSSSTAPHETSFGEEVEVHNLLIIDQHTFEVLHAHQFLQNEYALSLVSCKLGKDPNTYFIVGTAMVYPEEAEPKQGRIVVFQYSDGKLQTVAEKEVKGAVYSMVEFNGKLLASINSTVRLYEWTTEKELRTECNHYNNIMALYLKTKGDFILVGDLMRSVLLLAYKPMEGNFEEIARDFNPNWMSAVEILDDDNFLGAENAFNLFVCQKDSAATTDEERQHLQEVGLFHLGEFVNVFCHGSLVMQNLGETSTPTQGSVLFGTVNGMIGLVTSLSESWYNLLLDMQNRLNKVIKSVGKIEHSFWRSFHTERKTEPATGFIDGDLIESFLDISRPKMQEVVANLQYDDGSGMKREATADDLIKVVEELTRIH

| Compound | DC50 |
| --- | --- |
| Cc1c(NC(=O)c2ccc(C3CC3)cc2F)cc(F)cc1-c1ncnc(N)c1OCCN(C)C(=O)/C=C/CN(C)CCOCCOCCOCCOCCOCCOCCOCCOCCOCCOCCCCCCCCc1cc(Cl)cc(NC(=O)NCc2ccc3c(c2)CN(C2CCC(=O)NC2=O)C3=O)c1 (stereo not shown) [Compound I-98] | < 0.25 µM |
| C=C(F)C(=O)N1CCN(c2nc(OC[C@@H]3C[C@@H](OCCOCCOCCOCCOCCCCCCCCc4cccc(NC(=O)NCc5ccc6c(c5)CN(C5CCC(=O)NC5=O)C6=O)c4)CN3C)nc3c2CCN(c2cccc4cccc(Cl)c24)C3)C[C@@H]1CC#N (stereo partly shown) [Compound I-99] | 0.25 to 5 µM |
| CCC(=O)N1CCN(c2nc(OC[C@@H]3CCCN3CCOCCOCCOCCOCCOCCOCCOCCOCCOCCOCCOCCOCCOCCOCCCCCCCCc3cc(Cl)cc(NC(=O)NCc4ccc5c(c4)CN(C4CCC(=O)NC4=O)C5=O)c3)nc3c2CCN(c2cccc4cccc(Cl)c24)C3)CC1CC#N (stereo partly shown) [Compound I-103] | 0.25 to 5 µM |
| CN(C/C=C/C(=O)N1CCC[C@@H](n2nc(-c3ccc(Oc4ccccc4)cc3)c3c(N)ncnc32)C1)CCOCCOCCOCCOCCOCCCCCc1cc(Cl)cc(NC(=O)NCc2ccc3c(c2)CN(C2CCC(=O)NC2=O)C3=O)c1 (stereo partly shown) [Compound I-104] | 0.25 to 5 µM |
| Cc1c(NC(=O)c2ccc(C3CC3)cc2F)cc(F)cc1-c1ncnc(N)c1OCCN(C)C(=O)/C=C/CN(C)CCOCCOCCOCCOCCOCCCCCc1cc(Cl)cc(NC(=O)NCc2ccc3c(c2)CN(C2CCC(=O)NC2=O)C3=O)c1 (stereo not shown) [Compound I-105] | < 0.25 µM |
| CCC(=O)N1CCN(c2nc(OC[C@@H]3CCCN3CCOCCOCCOCCOCCOCCOCCOCCOCCOCCOCCOCCOCCOCCOCCCCCCCCc3cc(Cl)cc(NC(=O)NCc4ccc5c(c4)CN(C4CCC(=O)NC4=O)C5=O)c3)nc3c2CCN(c2cccc4cccc(Cl)c24)C3)C[C@@H]1CC#N (stereo partly shown) [Compound I-106] | 0.25 to 5 µM |
| CN(C/C=C/C(=O)N1CCN(c2nc(OC[C@@H]3CCCN3C)nc3c2CCN(c2cccc4cccc(Cl)c24)C3)C[C@@H]1CC#N)CCOCCOCCOCCOCCOCCCCCc1cc(Cl)cc(NC(=O)NCc2ccc3c(c2)CN(C2CCC(=O)NC2=O)C3=O)c1 (stereo partly shown) [Compound I-108] | 0.25 to 5 µM |
| CN(C/C=C/C(=O)N1CCC[C@@H](n2nc(-c3ccc(Oc4ccccc4)cc3)c3c(N)ncnc32)C1)CCOCCOCCOCCCCCc1cc(Cl)cc(NC(=O)NCc2ccc3c(c2)CN(C2CCC(=O)NC2=O)C3=O)c1 (stereo partly shown) [Compound I-110] | 0.25 to 5 µM |
| CN(C/C=C/C(=O)N1CCC[C@@H](n2nc(-c3ccc(Oc4ccccc4)cc3)c3c(N)ncnc32)C1)CCOCCOCCOCCOCCOCCOCCOCCCCCc1cc(Cl)cc(NC(=O)NCc2ccc3c(c2)CN(C2CCC(=O)NC2=O)C3=O)c1 (stereo partly shown) [Compound I-111] | 0.25 to 5 µM |
| Cc1c(NC(=O)c2ccc(C3CC3)cc2F)cc(F)cc1-c1ncnc(N)c1OCCN(C)C(=O)/C=C/CN(C)CCOCCOCCOCCCCCc1cc(Cl)cc(NC(=O)NCc2ccc3c(c2)CN(C2CCC(=O)NC2=O)C3=O)c1 (stereo not shown) [Compound I-112] | 0.25 to 5 µM |
| Cc1c(NC(=O)c2ccc(C3CC3)cc2F)cc(F)cc1-c1ncnc(N)c1OCCN(C)C(=O)/C=C/CN(C)CCOCCOCCOCCOCCOCCOCCOCCCCCc1cc(Cl)cc(NC(=O)NCc2ccc3c(c2)CN(C2CCC(=O)NC2=O)C3=O)c1 (stereo not shown) [Compound I-113] | 0.25 to 5 µM |
| Cc1ccc(NC(=O)NC(CCCCCOCCOCCOCCOCCOCCN(C)C/C=C/C(=O)N2CCN(c3nc(OC[C@@H]4CCCN4C)nc4c3CCN(c3cccc5cccc(Cl)c35)C4)C[C@@H]2CC#N)c2ccc3c(c2)CN(C2CCC(=O)NC2=O)C3=O)cc1Cl (stereo partly shown) [Compound I-114] | > 10 µM |
| Cc1ccc(NC(=O)NC(CCCCCOCCOCCOCCN(C)C/C=C/C(=O)N2CCN(c3nc(OC[C@@H]4CCCN4C)nc4c3CCN(c3cccc5cccc(Cl)c35)C4)C[C@@H]2CC#N)c2ccc3c(c2)CN(C2CCC(=O)NC2=O)C3=O)cc1Cl (stereo partly shown) [Compound I-115] | 5 to 10 µM |
| CN(C/C=C/C(=O)N1CCC[C@@H](n2nc(-c3ccc(Oc4ccccc4)cc3)c3c(N)ncnc32)C1)CCOCCOCCOCCOCCOCCOCCOCCOCCOCCCCCc1cc(Cl)cc(NC(=O)NCc2ccc3c(c2)CN(C2CCC(=O)NC2=O)C3=O)c1 (stereo partly shown) [Compound I-117] | 5 to 10 µM |
| COc1cc(N2CCN(C(=O)COCCOCCOCCOCCOCCCCCc3cc(Cl)cc(NC(=O)NCc4ccc5c(c4)CN(C4CCC(=O)NC4=O)C5=O)c3)CC2)ccc1Nc1ncc(Cl)c(Nc2ccccc2P(C)(C)=O)n1 (stereo not shown) [Compound I-119] | 0.25 to 5 µM |
| COc1cc(N2CCN(C(=O)COCCOCCOCCCCCc3cc(Cl)cc(NC(=O)NCc4ccc5c(c4)CN(C4CCC(=O)NC4=O)C5=O)c3)CC2)ccc1Nc1ncc(Cl)c(Nc2ccccc2P(C)(C)=O)n1 (stereo not shown) [Compound I-121] | < 0.25 µM |

| Compound | DC50 |
| --- | --- |
| C=CC(=O)NC1CN(c2nc(Nc3cn(CCOCCOCCOCCOCCOCCOCCOCCOCCOCCCCCc4cc(Cl)cc(NC(=O)NCc5ccc6c(c5)CN(C5CCC(=O)NC5=O)C6=O)c4)nc3OC)c3ncn(C)c3n2)C[C@H]1F (stereo partly shown) [Compound I-126] | 0.25 to 5 µM |
| Cc1c(NC(=O)c2ccc(C3CC3)cc2F)cc(F)cc1-c1ncnc(N)c1OCCN(C)C(=O)/C=C/CN(C)CCOCCOCCOCCOCCOCCOCCOCCOCCOCCCCCc1cc(Cl)cc(NC(=O)NCc2ccc3c(c2)CN(C2CCC(=O)NC2=O)C3=O)c1 (stereo not shown) [Compound I-129] | 0.25 to 5 µM |
| C=C(F)C(=O)N1CCN(c2nc(OC[C@@H]3CCCN3CCCOCCOCCOCCOCCOCCCCCc3cc(Cl)cc(NC(=O)NCc4ccc5c(c4)CN(C4CCC(=O)NC4=O)C5=O)c3)nc3c2CCN(c2cccc4cccc(Cl)c24)C3)C[C@@H]1CC#N (stereo partly shown) [Compound I-133] | 0.25 to 5 µM |
| CN(CCOCCOCCOCCOCCOCCOCCOCCOCCOCCCCCc1cc(Cl)cc(NC(=O)NCc2ccc3c(c2)CN(C2CCC(=O)NC2=O)C3=O)c1)C(=O)CO[C@H]1CC[C@H]2[C@@H]3CC[C@H]4CC(=O)CC[C@]4(C)[C@H]3CC[C@]12C (stereo partly shown) [Compound I-135] | 0.25 to 5 µM |
| C=C(F)C(=O)N1CCN(c2nc(OC[C@@H]3C[C@@H](OCC(=O)N(C)CCOCCOCCOCCOCCOCCOCCOCCCCCc4cc(Cl)cc(NC(=O)NCc5ccc6c(c5)CN(C5CCC(=O)NC5=O)C6=O)c4)CN3C)nc3c2CCN(c2cccc4cccc(Cl)c24)C3)C[C@@H]1CC#N (stereo partly shown) [Compound I-136] | 0.25 to 5 µM |
| C=CC(=O)Nc1cc(Nc2nccc(-c3cn(C)c4ccccc34)n2)c(OC)cc1N(C)CCN(C)CCOCCOCCOCCOCCOCCOCCOCCCCCc1cc(Cl)cc(NC(=O)NCc2ccc3c(c2)CN(C2CCC(=O)NC2=O)C3=O)c1 (stereo not shown) [Compound I-139] | 0.25 to 5 µM |
| C=C(F)C(=O)N1CCN(c2nc(OC[C@@H]3CCCN3CCCOCCOCCOCCOCCOCCCCCc3ccc(Cl)cc3NC(=O)NCc3ccc4c(c3)CN(C3CCC(=O)NC3=O)C4=O)nc3c2CCN(c2cccc4cccc(Cl)c24)C3)C[C@@H]1CC#N (stereo partly shown) [Compound I-140] | 0.25 to 5 µM |
| COc1cc(N2CCN(C(=O)COCCOCCOCCOCCOCCOCCOCCOCCOCCCCCc3cc(Cl)cc(NC(=O)NCc4ccc5c(c4)CN(C4CCC(=O)NC4=O)C5=O)c3)CC2)ccc1Nc1ncc(Cl)c(Nc2ccccc2P(C)(C)=O)n1 (stereo not shown) [Compound I-141] | 0.25 to 5 µM |
| Cc1c(NC(=O)c2ccc(C3CC3)cc2F)cc(F)cc1-c1ncnc(N)c1OCCN(C)C(=O)/C=C/CN(C)CCOCCOCCOCCOCCOCCOCCOCCOCCOCCOCCOCCCCCc1cc(Cl)cc(NC(=O)NCc2ccc3c(c2)CN(C2CCC(=O)NC2=O)C3=O)c1 (stereo not shown) [Compound I-143] | 0.25 to 5 µM |
| C=CC(=O)N1CCN(c2nc(=O)n(-c3c(C)cc(OCCOCCOCCOCCOCCOCCCCCc4cc(Cl)cc(NC(=O)NCc5ccc6c(c5)CN(C5CCC(=O)NC5=O)C6=O)c4)nc3C(C)C)c3nc(-c4c(O)cccc4F)c(F)cc23)[C@@H](C)C1 (stereo partly shown) [Compound I-149] | 0.25 to 5 µM |
| C=CC(=O)N1CCN(c2nc(=O)n(-c3c(C)cc(OCCOCCOCCOCCOCCOCCOCCOCCCCCc4cc(Cl)cc(NC(=O)NCc5ccc6c(c5)CN(C5CCC(=O)NC5=O)C6=O)c4)nc3C(C)C)c3nc(-c4c(O)cccc4F)c(F)cc23)[C@@H](C)C1 (stereo partly shown) [Compound I-153] | 0.25 to 5 µM |
| C=CC(=O)N1CCN(c2nc(=O)n(-c3c(C)cc(OCCOCCOCCOCCOCCOCCOCCOCCOCCOCCCCCc4cc(Cl)cc(NC(=O)NCc5ccc6c(c5)CN(C5CCC(=O)NC5=O)C6=O)c4)nc3C(C)C)c3nc(-c4c(O)cccc4F)c(F)cc23)[C@@H](C)C1 (stereo partly shown) [Compound I-154] | 0.25 to 5 µM |
| C=C(F)C(=O)N1CCN(c2nc(OC[C@@H]3CCCN3CCCOCCOCCOCCOCCOCCOCCOCCOCCOCCCCCc3cccc(NC(=O)NCc4ccc5c(c4)CN(C4CCC(=O)NC4=O)C5=O)n3)nc3c2CCN(c2cccc4cccc(Cl)c24)C3)C[C@@H]1CC#N (stereo partly shown) [Compound I-156] | 0.25 to 5 µM |
| CN(C/C=C/C(=O)N1CCN(c2nc(OC[C@@H]3CCCN3C)nc3c2CCN(c2cccc4cccc(Cl)c24)C3)C[C@@H]1CC#N)CCOCCOCCOCCOCCOCCOCCOCCOCCOCCCCCc1cc(Cl)cc(NC(=O)NCc2ccc3c(c2)CN(C2CCC(=O)NC2=O)C3=O)c1 (stereo partly shown) [Compound I-162] | 0.25 to 5 µM |
| CN(C/C=C/C(=O)N1CCN(c2nc(OC[C@@H]3CCCN3C)nc3c2CCN(c2cccc4cccc(Cl)c24)C3)C[C@@H]1CC#N)CCOCCOCCOCCOCCOCCOCCOCCOCCOCCCCCc1cc(Cl)cc(NC(=O)NCc2ccc3c(c2)CN(C2CCC(=O)N(C)C2=O)C3=O)c1 (stereo partly shown) [Compound I-164] | 5 to 10 µM |
